The values that follow come from patent US12129265B2, “Therapeutic agents and uses thereof” (Ankh Life Sciences Limited, priority 2020, dated 2024).

What all share (assay): CellTiter-Glo in vitro cell proliferation assay, Example 8
Format in all cases: cell-based, Human

The subject of one assay is A2780 cells. The conditions noted are these: A2780, Ovarian; read-out: Mean IC50. The protocol:
(§1) In this Example, in vitro cell proliferation assays were performed using: (1) Human Myeloma tumor cell lines; (2) Human Lymphoma tumor cell lines; (3) Solid Human tumor cell lines; and (4) Parental, Lenalidomide resistant and Bortezomib resistant Jeko-1 Mantle cell Lymphoma tumor cell lines. The compounds tested were three diharmaline compounds, namely the 518B562 (or simply 562), 560, and 561 compounds. In addition, a monoharmaline product designated as 518F014 was also tested. This monoharmaline product had the following structure:
(§2) Each proliferation assay was carried out as follows. The test cells were plated in growth media using a 384-well microtiter plate at 50 μL volume. The cells were incubated for 24 hours at 37° C. in a humidified incubator. After 24 hours of incubation, the test compounds were added to the test wells in DSMO solvent, at concentrations ranging from 0.0075-100 μM. Control wells received equal volumes of DSMO, without compound. Following drugging, the cells were incubated for 72 hours at 37° C. in a humidified incubator. After this exposure, 100 μL of a 1:1 mixture of sterile water and CellTiter-Glo® reagent (Promega) was added to each well. The plates were then incubated for 60 minutes at room temperature, followed by recording the luminescence value of each well using a luminometer as a measure of cell proliferation.

In the next assay the test system is A498 cells. The following applies: A498, RCC; read-out: Mean IC50. On the procedure: as §1, §2
Another assay concerns H1975 (EGFR mut) cells. The conditions noted are these: NSCLC, read-out: Mean IC50. On the procedure: as §1, §2
The subject of a further assay is MDA-MB-231 cells. The conditions noted are these: MDA-MB-231, TNBC; read-out: Mean IC50. The protocol: as §1, §2
Another assay has as its system FaDu cells. The conditions noted are these: H&N - SC, read-out: Mean IC50. On the procedure: as §1, §2
The subject of another assay is KMS-34 cells. The conditions noted are these: KMS-34, HMCL-B; read-out: Mean IC50. The protocol: as §1, §2
The test system of a further assay is AN3CA cells. The following applies: Endometrial, read-out: Mean IC50. The protocol:
as §1, §2

A further assay relates to MIA PaCa-2 cells. The conditions noted are these: MIA PaCa-2, Pancreatic; read-out: Mean IC50. The protocol: as §1, §2
The subject of the next assay is KMM-1 cells. The conditions noted are these: KMM-1, HMCL-A; read-out: Mean IC50. On the procedure:
as §1, §2

In another assay the test system is H1650 (EGFR mut) cells. The conditions noted are these: NSCLC, read-out: Mean IC50. The protocol:
as §1, §2

The test system of another assay is HCC70 cells. The following applies: HCC70, TNBC; read-out: Mean IC50. The protocol: as §1, §2
The subject of another assay is MDA-MB-468 cells. The conditions noted are these: MDA-MB-468, TNBC; read-out: Mean IC50. On the procedure:
as §1, §2

For the next assay, the system named is DOHH-2 cells. The following applies: DoHH-2, GCB-DLBCL; read-out: Mean IC50. The protocol: as §1, §2
For a further assay, the system named is SiHA cells. The conditions noted are these: Cervical - SC, read-out: Mean IC50. On the procedure: as §1, §2
A further assay relates to OCI-LY3 cells. The conditions noted are these: OCI-LY3, ABC-DLBCL; read-out: Mean IC50. On the procedure:
as §1, §2

A further assay has as its system HEC-1a cells. The conditions noted are these: Endometrial, read-out: Mean IC50. The protocol:
as §1, §2

The next assay relates to JIM1 cells. The conditions noted are these: JIM1, HMCL; read-out: Mean IC50. On the procedure:
as §1, §2

For another assay, the system named is L363 cells. The following applies: L363, PCL/MM; read-out: Mean IC50. On the procedure: as §1, §2
A further assay deals with A2780CP cells. The conditions noted are these: Ovarian, read-out: Mean IC50. On the procedure:
as §1, §2

A further assay concerns MOLP-8 cells. The conditions noted are these: MOLP-8, MM IgD; read-out: Mean IC50. The protocol: as §1, §2
Another assay deals with ASPC-1 cells. The conditions noted are these: ASPC-1, Pancreatic; read-out: Mean IC50. On the procedure: as §1, §2
The test system of another assay is BxPC-3 cells. The conditions noted are these: BxPC-3, Pancreatic; read-out: Mean IC50. The protocol: as §1, §2
The test system of another assay is RPMI-8226 cells. The following applies: RPMI-8226, HMM. On the procedure: as §2
In this example, different cell lines were subjected to in vitro cell proliferation assays as described in Example 8. In particular, the cell lines are identified in the following Table 17, and the tissue types were: Pancreatic; Endometrial; Triple-Negative Breast Cancer (TNBC); Non-Small-Cell Lung Carcinoma (NSCLC); Ovarian; Renal Cell Carcinoma (RCC); Cervical-Squamous Cell; […] (H&N-Squamous Cell); Germinal Center B Cell-Like Novo Diffuse Large B-Cell Lymphoma (GCB-DLBCL); Activated B-Cell—Diffuse Large B Cell Lymphoma (ABC-DLBCL); Human Myeloma; Human Myeloma Cell Line Lymphocyte-Like; Human Myeloma Cell Line Lymphocyte-Like Myeloma Pleural Effusion Infiltration; Human Multiple Myeloma; Plasma Cell Leukemia/Multiple Myeloma Epstein-Barr Nuclear Antigen-Negative (EBNA-Negative) and to Express mRNA for Proto-Oncogene B-Cell Lymphoma 2 (BCL2); Multiple Myeloma from Peripheral Blood Type IgD Lmabda.

By IC50 is commonly meant the midpoint of a concentration-inhibition curve. As to `COc1ccc2c3c([nH]c2c1)C(CC(CC1=NCCc2c1[nH]c1cc(OC)ccc21)c1ccc(OC)c(O)c1)=NCC3` [compound 7], the IC50 with A2780 cells came to 33 µM; in the assay with A498 cells, 29.3 µM; in the assay with H1975 (EGFR mut) cells it was 60.8 µM; in the assay on MDA-MB-231 cells, 31.7 µM; in the assay with FaDu cells, 13.7 µM; in the assay on KMS-34 cells, 11.1 µM. Also, the IC50 is 11.5 µM in the assay on AN3CA cells; 16.2 µM in the assay with MIA PaCa-2 cells; 19.9 µM in the assay with KMM-1 cells; 64.2 µM in the assay with H1650 (EGFR mut) cells; 23.4 µM in the assay with HCC70 cells; 11.2 µM in the assay with MDA-MB-468 cells. Further, the IC50 with DOHH-2 cells is 6.48 µM; with SiHA cells it was 48.1 µM; in the assay on OCI-LY3 cells, 11.4 µM; with HEC-1a cells, 71.1 µM; in the assay on JIM1 cells, 14.4 µM; in the assay with L363 cells, 11.8 µM. Also, the IC50 stood at 33.7 µM in the assay with A2780CP cells; 11.7 µM with MOLP-8 cells; 40.9 µM in the assay with ASPC-1 cells; 12.3 µM in the assay on BxPC-3 cells; 11.8 µM in the assay on RPMI-8226 cells.
Consider `COc1ccc2c3c([nH]c2c1)C(CC(CC1=NCCc2c1[nH]c1cc(OC)ccc21)c1cc(O)c(OC)c(OC)c1)=NCC3` [compound 11], for which the IC50 in the assay on A2780 cells stood at 18.3 µM; with A498 cells it was 51.3 µM; with H1975 (EGFR mut) cells, 19.5 µM; with MDA-MB-231 cells it was 13.5 µM; in the assay with FaDu cells, 16.4 µM; in the assay with KMS-34 cells, 11.1 µM. The IC50 was 8.74 µM in the assay with AN3CA cells; 11.7 µM in the assay with MIA PaCa-2 cells; 12.1 µM in the assay on KMM-1 cells; 26.2 µM in the assay with H1650 (EGFR mut) cells; 27.2 µM in the assay with HCC70 cells; 12.2 µM with MDA-MB-468 cells. The IC50 in the assay on DOHH-2 cells turned out to be 4.32 µM; with SiHA cells it was 15.9 µM; in the assay on OCI-LY3 cells it was 11.3 µM; in the assay with HEC-1a cells, 36.3 µM; with JIM1 cells, 11.5 µM; in the assay with L363 cells, 11.6 µM. Moreover, the IC50 worked out at 24.9 µM in the assay on A2780CP cells; 10.8 µM in the assay with MOLP-8 cells; 21.9 µM in the assay with ASPC-1 cells; 11.5 µM with BxPC-3 cells; 10.1 µM in the assay on RPMI-8226 cells.
With `COc1ccc2c3c([nH]c2c1)C(CC(CC1=NCCc2c1[nH]c1cc(OC)ccc21)c1cc(Br)c(O)c(OC)c1)=NCC3` [compound 12], the IC50 in the assay with A2780 cells worked out at 21.2 µM; in the assay on A498 cells it was 40.9 µM; with H1975 (EGFR mut) cells, 13 µM; in the assay on MDA-MB-231 cells, 11.3 µM; with FaDu cells it was 18.2 µM; with KMS-34 cells, 7.19 µM. Moreover, the IC50 in the assay on AN3CA cells was 5.36 µM; in the assay on MIA PaCa-2 cells, 11.7 µM; with KMM-1 cells, 10.6 µM; in the assay with H1650 (EGFR mut) cells it was 21.6 µM; in the assay with HCC70 cells it was 22 µM; in the assay on MDA-MB-468 cells, 11.6 µM. For the same compound, the IC50 worked out at 3.72 µM in the assay with DOHH-2 cells; 50.2 µM in the assay on SiHA cells; 11.3 µM in the assay with OCI-LY3 cells; 24.8 µM in the assay with HEC-1a cells; 6.04 µM with JIM1 cells; 10.9 µM with L363 cells. Besides, the IC50 with A2780CP cells came out at 20.5 µM; with MOLP-8 cells, 3.88 µM; in the assay on ASPC-1 cells, 31.3 µM; in the assay with BxPC-3 cells it was 11.3 µM; in the assay with RPMI-8226 cells it was 10.2 µM.
As for `COc1ccc2c3c([nH]c2c1)C(CC(CC1=NCCc2c1[nH]c1cc(OC)ccc21)c1ccc(OC)c(O)c1I)=NCC3` [compound 14], the IC50 in the assay on A2780 cells was 21.2 µM; with A498 cells it was 54.7 µM; in the assay with H1975 (EGFR mut) cells, 33.6 µM; in the assay with MDA-MB-231 cells it was 32.4 µM; in the assay with FaDu cells, 19.2 µM; in the assay with KMS-34 cells, 14.6 µM. In addition, the IC50 with AN3CA cells was determined as 9.05 µM; in the assay with MIA PaCa-2 cells it was 22.2 µM; in the assay on KMM-1 cells, 23.9 µM; in the assay on H1650 (EGFR mut) cells, 25.4 µM; in the assay on HCC70 cells it was 33.3 µM; with MDA-MB-468 cells, 16.9 µM. Further, the IC50 was determined as 7.9 µM in the assay on DOHH-2 cells; 51.9 µM with SiHA cells; 15.4 µM in the assay on OCI-LY3 cells; 28.7 µM in the assay with HEC-1a cells; 17.9 µM in the assay on JIM1 cells; 23.4 µM with L363 cells. Further, the IC50 with A2780CP cells was 24.3 µM; with MOLP-8 cells, 10.1 µM; in the assay with ASPC-1 cells, 53.1 µM; in the assay with BxPC-3 cells, 21 µM; in the assay on RPMI-8226 cells it was 7.53 µM.
For the compound `COc1cccc(C(CC2=NCCc3c2[nH]c2cc(OC)ccc32)CC2=NCCc3c2[nH]c2cc(OC)ccc32)c1` [compound 15], the IC50 in the assay with A2780 cells amounted to 8.45 µM; in the assay on A498 cells it was 15.2 µM; with H1975 (EGFR mut) cells, 12.1 µM; in the assay on MDA-MB-231 cells, 6.77 µM; in the assay with FaDu cells it was 6.62 µM; in the assay with KMS-34 cells it was 3.5 µM. For the same compound, the IC50 in the assay on AN3CA cells stood at 3.45 µM; with MIA PaCa-2 cells, 3.63 µM; in the assay on KMM-1 cells, 7.36 µM; in the assay on H1650 (EGFR mut) cells, 9.6 µM; in the assay with HCC70 cells it was 11.7 µM; with MDA-MB-468 cells, 6.7 µM. For the same compound, the IC50 in the assay on DOHH-2 cells stood at 5.05 µM; in the assay with SiHA cells, 12.3 µM; with OCI-LY3 cells, 6.32 µM; with HEC-1a cells, 13.1 µM; in the assay on JIM1 cells, 6.26 µM; in the assay on L363 cells, 6.58 µM. Also, the IC50 with A2780CP cells is 7.63 µM; in the assay with MOLP-8 cells, 3.19 µM; with ASPC-1 cells, 5.45 µM; in the assay with BxPC-3 cells, 4.22 µM; in the assay with RPMI-8226 cells, 2.95 µM.
Turning to `COc1ccc2c3c([nH]c2c1)C(CC(CC1=NCCc2c1[nH]c1cc(OC)ccc21)c1ccc(F)c(Oc2ccccc2)c1)=NCC3` [compound 19], the IC50 in the assay on A2780 cells came out at 22.1 µM; in the assay with A498 cells, 89.5 µM; with H1975 (EGFR mut) cells, 55 µM; in the assay with MDA-MB-231 cells it was 41.8 µM; with FaDu cells it was 44.4 µM; with KMS-34 cells it was 31.2 µM. For the same compound, the IC50 is 22.8 µM with AN3CA cells; 36.6 µM with MIA PaCa-2 cells; 25.6 µM with KMM-1 cells; 56.8 µM with H1650 (EGFR mut) cells; 50.9 µM in the assay on HCC70 cells; 48.9 µM in the assay on MDA-MB-468 cells. Also, the IC50 in the assay with DOHH-2 cells was 10.2 µM; in the assay with SiHA cells it was 75.9 µM; in the assay on OCI-LY3 cells it was 20.6 µM; with HEC-1a cells, 45 µM; in the assay on JIM1 cells, 42.9 µM; with L363 cells, 36.8 µM. The IC50 in the assay on A2780CP cells is 27.5 µM; in the assay with MOLP-8 cells, 9.81 µM; with ASPC-1 cells it was 45.5 µM; with BxPC-3 cells it was 36.2 µM; with RPMI-8226 cells it was 10.6 µM.
